Data set [1] in a line: PK/PD study of Formulation A s.c. in SD rats. The following applies: for absorption lag time after s.c. administration: Formulation A 0.744 ml/kg s.c.
Description: (§1) All samples were frozen and stored at −70° C. on receipt. The samples were analyzed by liquid chromatography with tandem mass spectral detection.
The conditions of data set [2]: rat, in vivo, sc; for time by which cleared: SD.
Description: as §1
Data set [3] can be described thus: PK/PD study of Formulation A s.c. in mini pigs. Particulars: Formulation A 0.132 ml/kg s.c.
Description: as §1
The conditions of data set [4]: cited from earlier work.
For data set [5] the following is noted: pig, in vivo, sc.
Description: as §1
A short description of data set [6]: Degradation of FK506 in a combination of the two APIs. It is filed as physicochemical. The following applies: combination of the two APIs in solution, earlier attempts; stated as 'may be'.

Read-outs that look alike come from different tables or passages of the source.

Take `C=CC[C@@H]1/C=C(\C)C[C@H](C)C[C@H](OC)[C@H]2O[C@@](O)(C(=O)C(=O)N3CCCC[C@H]3C(=O)O[C@H](/C(C)=C/[C@@H]3CC[C@@H](O)[C@H](OC)C3)[C@H](C)[C@@H](O)CC1=O)[C@H](C)C[C@@H]2OC` [FK506, Tacrolimus]: in data set [1], the “absorption lag time after s.c. administration” value is listed as “no observable lag time”. Further, the “time of peak plasma concentration” value in data set [1] (Formulation A 0.744 ml/kg s.c. (AMD3100 17.856 mg/kg, FK506 0.372 mg/kg), n=12) was 1 h. Moreover, in data set [2], the “time by which cleared” value is at most 12 h and the “plasma level at 3 hours” value was “remained at high levels”. Also, in data set [3], the clearance from blood entry is on record as “cleared rapidly after 12 hours”. Besides, the solubility in water result in data set [4] is “poor solubility in water”. Also, the “blood level at 3 hours” value in data set [5] is “remained at high levels”. Moreover, the FK506 degraded result in data set [6] was “About 50%”.
As to AMD3100 octahydrochloride hydrate, in data set [4], the solubility in water is 22 mg/mL.
Regarding `c1cc(CN2CCCNCCNCCCNCC2)ccc1CN1CCCNCCNCCCNCC1` [AMD3100], the “absorption lag time after s.c. administration” value in data set [1] is reported as “no observable lag time”. In data set [2], the “time by which cleared” value is at most 12 h and the “plasma level at 3 hours” value was “remained at high levels”. Moreover, in data set [3], the “blood level at 3 hours” value was “remained at high levels” and the clearance from blood entry is given as “cleared rapidly after 12 hours”.

The values above are taken from patent US12115149B2, “Formulations, methods, kits, and dosage forms” (MedRegen, LLC, priority 2020, dated 2024).
